According to patent publication US4696920A, “Certain 2-substituted 1,3-propylidenediphosphonate derivatives, pharmaceutical compositions containing them and their use as antihypertensive agents” (priority 1984, dated 1987):
“Also recorded” adds a separate entry of the source.

What was measured:
[1] = test system: mean blood pressure in rat; experiment: Acute intravenous hypotensive activity in anesthetized rats; type: in vivo, rat (male Wistar); settings: for hypotensive activity (in words): acute i.v., Table 4
Description: Male Wistar rats were anesthetized with Pentobarbital (Nembutal, 60 mg/kg i.p.) and heparinized (5 mg/kg i.p.). After tracheotomy the right carotid was cannulated (catheter PE 50); blood pressure was measured with a pressure transducer (Statham P 23 db) and recorded on a polygraph (Beckman).
Animals received 0.5 and 1.5 mg/kg of the test compounds. Less than 100 μl of test compounds dissolved in 0.9% saline were injected in the jugular vein. Highly water insoluble compounds were suspended in 2% Tween-80. Injection of the vehicle alone had no detectable hypotensive effect.
Results presented are expressed as percent decrease in initial mean blood pressure (Mean±SEM).

[2] = test system: calcium channel binding site for [^3 H]-Nitrendipine (rat brain membranes); experiment: [^3 H]-Nitrendipine binding to rat brain membranes; set-up: species or system rat (male Wistar); settings: Table 1a; for Specifically bound [^3 H]-Nitrendipine % of control value: compound concentration 1.0 μM; for Bound ^3 H at 1.0 μM / Bound ^3 H at 0.1 μM: ratio of [^3 H]-Nitrendipine bound at 1.0 and 0.1 μM compound
In short: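 Cerebral cortex membranes from male Wistar rats (400 μg protein/tube) were incubated with [3H]-nitrendipine and compounds in 50 mM Tris-HCl pH 7.4/150 mM NaCl/1 mM CaCl2 under subdued light, ethanol ≤0.1%. Bound radioligand was collected by GF/B filtration and counted; data are percent specific binding versus control, with compounds judged at 1.0 μM final.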

[3] = test system: rat trachea contraction induced by KCl depolarization; experiment: KCl-induced rat trachea contraction; set-up: species or system rat (male SHR, Okamoto-Aoki); settings: for activity at 1 µM: Rattus norvegicus, 40 min, read-out: Contraction (% max.); for activity on KCl-induced trachea contraction (in words): final concentration 1.0 μM
In short: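 Spiral trachea strips from male SHR rats were held in Krebs-Ringer (pH 7.4, 95/5 O2/CO2, 37±1° C) under 1.5–2 g tension, and contraction was measured isometrically. After a 65 mM KCl plateau, drugs (1.0 μM final) were added. Residual contraction at 40 min was expressed as % of the initial KCl response.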

[4] = test system: isolated rat atrium (atrium rate); experiment: Chronotropic activity in isolated rat atrium; set-up: species or system rat (male SHR, Okamoto-Aoki); settings: 5.0 × 10^-6 M, mean ± SEM, read-out: Decrease in atrium rate (% pretest)
Description: Spontaneously hypertensive male rats (SHR) (Okamoto-Aoki strain) were anesthetized with Pentobarbital (Nembutal Abbott, 60 mg/kg, i.p.). The hearts were quickly excised and both atria were dissected free from adjacent cardiac tissues. The atria were immediatly placed in a 50 ml Krebs-Ringer bath with the following composition (mM): NaCl, (120.0); KCl, (5.63); CaCl2, (2.0); MgCl2, (2.10); NaHCO3, (25.0); Glucose, (9.7) (pH 7.4). The solution was continuously bubbled with a O2 /CO2 mixture (95/5) and maintained at 37±1° C. The atrium was fixed to an optical displacement transducer (IITC, USA) under a resting tension of 1 g in order to measure atrial rate. The preparation was allowed to equilibrate for 40 min then cumulative dose-response curves were determined for each test compound (0.5-5 μMole/l). Maximum effect was normally obtained within 30-40 min. for each concentration.
Stock solutions of the 1,3-diphosphonates were generally prepared in 0.9% saline and water insoluble compounds were prepared in 50% ethanol. […] When tested at the concentration of 5.0×10^-6 M a decrease in atrium rate of more than 5% was considered as significant.
All data are presented as % decrease of initial atrium rate (mean values±SEM). A potent negative chronotropic effect was found with all compounds tested (table 3).

[5] = test system: blood pressure in hypertensive rats; experiment: Oral hypotensive activity in hypertensive rats (tail cuff); type: in vivo, rat (spontaneously hypertensive, SHR); settings: Table 5
Description: Some selected compounds were given orally to conscious SHR rats and blood pressure was monitored using the tail cuff method. A marked and sustained hypotensive activity was measured in all treated rats. Results are given 2 hours post dose (Table 5). These studies illustrate the obvious potential use of orally administered 1,3-diphosphonates for the clinical treatment of hypertension in man.

[6] = test system: [^3 H]-PN-200 110 (dihydropyridine) binding site of calcium channel, rat brain membranes; experiment: [^3 H]-PN-200 110 binding to rat brain membranes; set-up: species or system rat (male Wistar); settings: for Specifically bound [^3 H]-PN-200 110 % of control value: compound concentration 1.0 μM; for Specifically bound [^3 H]-PN-200 110 % of control value / Bound ^3 H at 1.0 μM / Bound ^3 H at 0.1 μM: Table 1b; for Bound ^3 H at 1.0 μM / Bound ^3 H at 0.1 μM: ratio of [^3 H]-PN-200 110 bound at 1.0 and 0.1 μM compound
Description: Diltiazem hydrochloride was a generous gift from Goedecke A. G.
Water insoluble compounds were dissolved in absolute ethanol to give 10 mM or 2.5 mM stock solutions. Suitable dilutions were made in 50 mM Tris-HCl buffer (pH 7.4) containing 150 mM NaCl and 1 mM CaCl2. The ethanol concentration in the final assay never exceeded 0.1%.
The purity of the radioligand and of the various agents tested was monitored by thin layer chromatography on silica gel plates.
The following procedure was adapted from Bellemann et al (Proc. Nat. Acad. Sci. 80, 2356, 1983), and Gould et al (Proc. Nat. Acad. Sci. 79, 3656, 1982).
Adult male Wistar rats weighing 250-300 g were anesthetized with carbon dioxide prior to decapitation. The brain was removed then immersed in ice-cold 0.32M sucrose and washed 2-3 times with fresh solution. Cerebral cortex was minced and homogenized (Potter-Elvehjem homogenizer) in 10 volumes of ice-cold sucrose solution. The homogenate was centrifuged (4° C.) at 1000×g for 15 minutes. The resulting supernatant was then centrifuged at 90000×g (30 minutes) and the pellet was washed twice with 20 ml ice-cold 50 mM Tris-HCl pH 7.4.
The final pellet was resuspended in 50 mM Tris-HCl pH 7.4/150 mM NaCl/1 mM CaCl2 to give a protein concentration of 4 mg/ml.
The membrane suspension was kept on ice until used. Binding assays were performed in subdued light to prevent dihydropyridine breakdown. Membrane protein (400 μg/tube) was incubated in 50 mM Tris-HCl buffer (pH 7.4)/150 mM NaCl/1 mM CaCl2 with the indicated concentrations of radioligand and test compounds or known calcium antagonists, in a total volume of 2 ml. After the indicated time intervals, the reaction was terminated by rapid filtration through Whatman GF/B glass fiber filters (2.4 cm diameter) on a Millipore filter holder. The assay tube was rinsed with 2 ml ice-cold 50 mM Tris-HCl pH (7.4) and the precipitate was further washed with 2×5 ml of the same buffer.
Filters were dried under a heat lamp and were extracted with 10 ml of liquid scintillation cocktail (Toluene/Triton X-100, 2/1 containing 4 g Omnifluor/1) prior to tritium determination at 48% counting efficiency.
Assays were performed in duplicate or triplicate.
Data were expressed as percent specific [^3 H]-Nitrendipine binding relative to the established control value.
Compound activity in the [^3 H]-Nitrendipine binding assay was evaluated by using the following criteria:
1. [^3 H]-Nitrendipine binding at 1.0 μM compound final concentration was either below 95% or above 105% of the control value determined in absence of compound.
2. The ratio obtained by dividing the amount of specifically found [^3 H]-Nitrendipine at 1.0 μM compound final concentration by the value obtained at 0.1 μM test compound, was smaller than 0.9 or greater than 1.1. This ratio is indicative of a dose response relationship within the compound concentration range tested, when the value differs appreciably from 1.0.
Note: In some experiments [^3 H]-PN200 110, a new and commercially available specific dihydropyridine was used instead of [^3 H]-Nitrendipine.

[7] = test system: drug receptor sites associated with calcium channels; settings: known calcium antagonists; cited from earlier work
[8] = test system: slow inward current of the action potential; settings: classical calcium antagonists; cited from earlier work
[9] = Rattus norvegicus, iv, read-out: Decrease in mean blood pressure (% pretest)

CC(C)OP(=O)(CC(Cc1ccccc1)CP(=O)(OC(C)C)OC(C)C)OC(C)C [Compound 55, Tetraisopropyl 2-benzyl-1,3-propylidenephosphonate]
inhibition in vivo at 0.5 mg/kg [1, 9]: 28.2 ± 0.7% | inhibition in vivo at 1.5 mg/kg [1, 9]: 31.1 ± 6.4% | modulation of [^3 H]-Nitrendipine binding (in words) [2]: activators | Specifically bound [^3 H]-Nitrendipine % of control value [2]: 156 % of control value | Bound ^3 H at 1.0 μM / Bound ^3 H at 0.1 μM [2]: 1.292 | activity at 1 µM [3]: 73 ± 1% | activity on KCl-induced trachea contraction (in words) [3]: potent pharmacological activity | inhibition at 5 µM [4]: 17.5 ± 4.6%

CCCCOP(=O)(CC(Cc1ccccc1)CP(=O)(OCCCC)OCCCC)OCCCC [Compound 73, Tetrabutyl 2-benzyl-1,3-propylidenediphosphonate]
inhibition in vivo at 0.5 mg/kg [1, 9]: 50 ± 3.8% | hypotensive activity (in words) [1]: hypotensive activity superior to that of classical hypotensive drugs and of the calcium antagonists used as references | modulation of [^3 H]-Nitrendipine binding (in words) [2]: strong inhibitors | Specifically bound [^3 H]-Nitrendipine % of control value [2]: 81 % of control value | Bound ^3 H at 1.0 μM / Bound ^3 H at 0.1 μM [2]: 0.862 | activity at 1 µM [3]: 46.2 ± 1.8% | activity on KCl-induced trachea contraction (in words) [3]: potent pharmacological activity | inhibition at 5 µM [4]: 18.8 ± 11.2%

CCCCOP(=O)(CC(CCc1ccccc1)CP(=O)(OCCCC)OCCCC)OCCCC [Compound 74]
inhibition in vivo at 0.5 mg/kg [1, 9]: 50.8 ± 2.7% | hypotensive activity (in words) [1]: hypotensive activity superior to that of classical hypotensive drugs and of the calcium antagonists used as references | Specifically bound [^3 H]-Nitrendipine % of control value [2]: 17 % of control value | Bound ^3 H at 1.0 μM / Bound ^3 H at 0.1 μM [2]: 0.380 | activity at 1 µM [3]: 35 ± 1.2% | activity on KCl-induced trachea contraction (in words) [3]: potent pharmacological activity | inhibition at 5 µM [4]: 8.3 ± 4.5%

CCCCOP(=O)(CC(CCCc1ccccc1)CP(=O)(OCCCC)OCCCC)OCCCC [Compound 75, Tetrabutyl 2-(3-phenylpropyl)-1,3-propylidenediphosphonate]
inhibition in vivo at 0.5 mg/kg [1, 9]: 22.8 ± 1.6% | modulation of [^3 H]-Nitrendipine binding (in words) [2]: strong inhibitors | Specifically bound [^3 H]-Nitrendipine % of control value [2]: 22 % of control value | Bound ^3 H at 1.0 μM / Bound ^3 H at 0.1 μM [2]: 0.354 | activity at 1 µM [3]: 70 ± 3% | activity on KCl-induced trachea contraction (in words) [3]: potent pharmacological activity | inhibition at 5 µM [4]: 14.8 ± 4.8%

CCCCOP(=O)(CC(CCOc1ccccc1)CP(=O)(OCCCC)OCCCC)OCCCC [Compound 79, Tetrabutyl 2-(2-phenoxyethyl)-1,3-propylidenediphosphonate]
oral hypotensive activity (in words) [5]: decrease blood pressure as markedly as the marketed calcium antagonists used as references | modulation of [^3 H]-Nitrendipine binding (in words) [2]: strong inhibitors | Specifically bound [^3 H]-Nitrendipine % of control value [2]: 0 % of control value | Bound ^3 H at 1.0 μM / Bound ^3 H at 0.1 μM [2]: 0.000 | activity at 1 µM [3]: 60.3 ± 9.6% | activity on KCl-induced trachea contraction (in words) [3]: potent pharmacological activity | Specifically bound [^3 H]-PN-200 110 % of control value [6]: 3 % of control value | Bound ^3 H at 1.0 μM / Bound ^3 H at 0.1 μM [6]: 0.211

CCCCOP(=O)(CC(Cc1cccc2ccccc12)CP(=O)(OCCCC)OCCCC)OCCCC [Compound 83]
inhibition in vivo at 0.5 mg/kg [1, 9]: 10.6 ± 0.5% | modulation of [^3 H]-Nitrendipine binding (in words) [2]: strong inhibitors | Specifically bound [^3 H]-Nitrendipine % of control value [2]: 36 % of control value | Bound ^3 H at 1.0 μM / Bound ^3 H at 0.1 μM [2]: 0.548 | activity at 1 µM [3]: 62.5 ± 11.5% | activity on KCl-induced trachea contraction (in words) [3]: potent pharmacological activity | inhibition at 5 µM [4]: 4.4 ± 0.6%

CCCCOP(=O)(CC(CCOc1cccc(C(F)(F)F)c1)CP(=O)(OCCCC)OCCCC)OCCCC [Compound 93]
oral hypotensive activity (in words) [5]: decrease blood pressure as markedly as the marketed calcium antagonists used as references | Specifically bound [^3 H]-PN-200 110 % of control value [6]: 0 % of control value | Bound ^3 H at 1.0 μM / Bound ^3 H at 0.1 μM [6]: 0.000 | potency in [^3 H]-PN200 110 binding (in words) ([6]; text on Table 1b): as potent as Nifedipine

COc1ccc([C@@H]2Sc3ccccc3N(CCN(C)C)C(=O)[C@@H]2OC(C)=O)cc1 [Diltiazem]
inhibition in vivo at 1 mg/kg ([1]; Rattus norvegicus, iv, 1.0 mg/kg, known hypotensive drugs, mean ± SEM, read-out: Decrease in mean blood pressure (% pretest)): 47.9% | effect on [^3 H]-Nitrendipine binding (in words) [7]: stimulators; also recorded: enhances [^3 H]Nitrendipine binding | inhibition of slow inward current (in words) [8]: inhibit with very high specificity the slow inward current of the action potential

COC(=O)C1=C(C)NC(C)=C(C(=O)OC)C1c1ccccc1[N+](=O)[O-] [Nifedipine]
inhibition of slow inward current (in words) [8]: inhibit with very high specificity the slow inward current of the action potential
